Read-outs that look alike come from different tables or passages of the source.

For series [1] the following is noted: i.v., rat; cited from earlier work.
In a further series the test system is bone marrow red cells. Kind of series: Chemoprotection: combination of tricaprin and compound I in CY-treated mice, bone marrow red cell count (Example 3). Format: in vivo, C57BL/6 mice. The settings on record: tricaprin 60.5 mM oral and/or compound I 50 mg/kg peritoneal injection, day −3, −2, −1. The protocol:
(§1) Female C57BL/6 mice, 6 to 8 weeks old, were immunosuppressed by treatment with 200 mg/kg of cyclophosphamide (CY) administered intravenously at day 0. To examine the chemoprotective effect of compound I, mice were pre-treated intraperitoneally at day −3, −2 and −1 with 50 mg/kg of the compound. Mice were sacrificed at day +5 by cardiac puncture and cervical dislocation. Then, cell suspensions were prepared from thymus, spleen and bone marrow as follows.
(§2) Tissues were crushed in PBS buffer and contaminating erythrocytes were lysed in ACK buffer (155 mM NH4Cl, 12 mM NaHCO3, 0.1 mM EDTA, pH 7.3) for five minutes. Cells were then collected by centrifugation and washed three times in PBS and resuspended in tissue culture medium. Cells were counted with a Coulter counter.
(§3) The effect of tricaprin, compound I, and the combination of both compounds on in vivo induction of hematopoietic cell proliferation or protection was determined following the protocol described in Example 1. Oral administration of tricaprin (60.5 mM) and/or peritoneal injection of compound I were performed on day −3, −2 and −1.

The subject of another series is CTLs. The settings on record: compared with interleukin 2; cited from earlier work.
Series [2] concerns hematopoietic cells. Kind of series: Chemoprotection: combination of sodium caprate and compound I in CY-treated mice (Example 2). The class given is in vivo, C57BL/6 mice. The settings on record: for Effect on bone marrow red cell count (FIG. 2) / Effect on bone marrow white cell count (FIG. 3): low dose, intravenous: sodium caprate 1.21 mM, compound I 5 mg/kg, sodium caprate or compound I used alone; for Effect on peripheral red blood cell count (FIG. 1): sodium caprate 60.5 mM oral and/or compound I 50 mg/kg i.p., day −3, −2, −1, versus respective CY control.

The subject of series [3] is bone marrow progenitor cell. Kind of series: Bone marrow progenitor cells (CFU-GEMM) after tricaprin, compound I or both in CY-treated mice (Example 3). The class given is in vivo, C57BL/6 mice. The following applies: tricaprin 60.5 mM oral and/or compound I 50 mg/kg. The method, then: as §1, §3
For series [4] the following is noted: cited from earlier work.
Series [5] concerns hematopoietic cells. Kind of series: Chemoprotection: in vivo protection of hematopoietic cells by compound I in CY-immunosuppressed mice (Example 1). Also noted: species or system C57BL/6 mice. The following applies: for Cell count, peripheral blood white cells / Cell count, spleen red cells / Cell count, spleen white cells: CY 200 mg/kg i.v. day 0, compound I 50 mg/kg i.p. day −3, −2, −1, sacrifice day +5. The method, then:
as §1, §2

The next series concerns MC-38 colon cancer. Kind of series: Survival of mice with MC-38 colon cancer treated with a toxic regimen of 5-fluorouracil. The following applies: compound I plus toxic regimen of 5-fluorouracil versus 5-fluorouracil alone (e.g., 40 mg/kg). Format: in vivo.
Series [6] relates to hematopoietic cells. Kind of series: Chemoprotection: combination of histamine dihydrochloride and compound I in CY-treated mice (Example 6). The class given is in vivo, C57BL/6 mice. The settings on record: for Effect on bone marrow white cell count (FIG. 5): intravenous histamine dihydrochloride 25 mg/kg and/or compound I 5 mg/kg, day −3, −2, −1, CY-treated mice, compared to CY. The protocol:
(§4) Mice were sacrificed at day +5 by cardiac puncture and cervical dislocation. Then, cell suspensions were prepared from thymus, spleen and bone marrow as follows. Tissues were crushed in PBS buffer and contaminating erythrocytes were lysed in ACK buffer (155 mM NH4Cl, 12 mM NaHCO3, 0.1 mM EDTA, pH 7.3) for five minutes. Cells were then collected by centrifugation and washed three times in PBS and resuspended in tissue culture medium. Cells were counted with a Coulter counter. Effect of low dose of histamine, compound I, and the combination of both compounds on in vivo induction of hematopoietic cell proliferation or protection was undertaken following the protocol described in Example 1.

The subject of series [7] is hematopoietic cells. Kind of series: Chemoprotection: combination of histamine dihydrochloride and compound II in CY-treated mice (Example 7). The class given is in vivo, C57BL/6 mice. The following applies: histamine dihydrochloride 25 mg/kg i.v. and/or compound II 100 mg/kg oral, day −3, −2, −1, compared to CY. The protocol:
as §1, §2
Effect of low dose of histamine, compound II, and the combination of both compounds on in vivo induction of hematopoietic cell proliferation or protection was undertaken following the protocol described in Example 1. Intravenous administration of histamine dihydrochloride (25 mg/kg) and oral administration of compound II (100 mg/kg) were performed on day −3, −2 and −1.

The subject of series [8] is hematopoietic cells. Kind of series: Chemoprotection: in vivo protection of hematopoietic cells by compound II in CY-treated mice (Example 4). Also noted: species or system C57BL/6 mice. The protocol: as §1, §2
The effect of compound II on in vivo induction of hematopoietic cell proliferation or protection was determined following the protocol described in Example 1. Oral administration of compound II (50 mg/kg or 100 mg/kg) was performed on day −3, −2 and −1.

The test system of series [9] is hematopoietic cells. Kind of series: Chemoprotection: combination of sodium caprate and compound II in CY-treated mice (Example 5). The class given is in vivo, C57BL/6 mice. The settings on record: oral sodium caprate 60.5 mM and/or compound II 50 mg/kg or 100 mg/kg, day −3, −2, −1. The protocol: as §4, with “The effect” for “Effect”, “sodium caprate,” for “low dose of histamine,”, “II,” for “I,”, “determined” for “undertaken”

For series [10] the following is noted: rat, in vivo, po; cited from earlier work.
Setting [11] is: pre-treatment 50 mg/kg i.p. in CY-treated mice, versus CY.
The mark [12] stands for this setting: CY + compound II 50 mg/kg oral, day −3, −2, −1.
Setting [13] is: CY + compound II 100 mg/kg oral, day −3, −2, −1.
The mark [14] stands for this setting: oral pre-treatment in CY-treated mice, dose not given.
[15] abbreviates: CY alone (200 mg/kg i.v. day 0).

As to `CN(C)c1ncnc2c1ncn2CCCCCOC(=O)NC(CCCNC(=N)N)C(=O)O` (stereo not drawn) [compound I, [[5-[6-(N,N-dimethylamino)purin-9-yl]pentoxy]-carbonyl]d-arginine], in series [1], the LD50 entry is given as “more than 500 mg/kg”. Besides, in the series on bone marrow red cells, the “Bone marrow red cell count” value is recorded as 37.4 ± 7.1 10^6. Also, in the series on CTLs, the “In vitro stimulation of CTLs” value was “comparable to the immune growth factor or cytokine interleukin 2”. Besides, in the series with hematopoietic cells [2], the “Effect on bone marrow red cell count (FIG. 2)” value is “No effect”, the “Effect on bone marrow white cell count (FIG. 3)” value is reported as “No effect” and the “Effect on peripheral red blood cell count (FIG. 1)” value is listed as “significant increase”. Further, the “CFU-GEMM (colony number), bone marrow” value in series [3] was 1 colony number. The “In vivo antitumor activity” value in series [4] is given as “significant in vivo antitumor activity”. Further, in the series on hematopoietic cells [5], the “Cell count, peripheral blood white cells” value was 2.6 ± 0.6 10^6; the “Cell count, spleen red cells” value is 468 ± 104 10^6; the “Cell count, spleen white cells” value was 48 ± 5 10^6. In the series on hematopoietic cells [5] (pre-treatment 50 mg/kg i.p. in CY-treated mice), the “Spleen red cell count compared to non-immunosuppressed animals (control)” value is “some treated animals returned to a “baseline level””. Besides, in the series on hematopoietic cells [5] (setting [11]), the “Effect on peripheral white blood cell count (in words)” value is “significant increase”, the “Effect on spleen red cell count (in words)” value was “significant increase” and the “Effect on spleen white cell count (in words)” value is “significant increase”. Moreover, the Survival of animals result in the series on MC-38 colon cancer is reported as “improved survival”. Also, the “Effect on bone marrow white cell count (FIG. 5)” value in the series with hematopoietic cells [6] is “No significant effect”.
As for `Cl.Cl.NCCc1c[nH]cn1` [histamine, histamine dihydrochloride], in the series on hematopoietic cells [7], the “Effect on spleen white cell count (FIG. 7)” value is “No significant effect”. Also, the Stimulation of hematopoiesis entry in the series on hematopoietic cells [6] (histamine alone, general statement) is reported as “weakly stimulate hematopoiesis”. Moreover, the “Effect on bone marrow white cell count (FIG. 5)” value with hematopoietic cells [6] is recorded as “No significant effect”.
With `CN(C)c1ncnc2c1ncn2CCCCCO` [compound II], the “Effect on spleen white cell count (FIG. 7)” value with hematopoietic cells [7] is “No significant effect”. Also, in the series with hematopoietic cells [8] (setting [12]), the “Cell count, bone marrow red cells” value is listed as 29.4 ± 2.7 10^6 and the “Cell count, bone marrow white cells” value is listed as 17.4 ± 3.5 10^6. Further, in the series with hematopoietic cells [8] (setting [13]), the “Cell count, bone marrow red cells” value is listed as 43.9 ± 16.3 10^6 and the “Cell count, bone marrow white cells” value was 30.5 ± 9.4 10^6. Besides, the “Bone marrow red and white cell counts compared to non-immunosuppressed animals (control)” value in the series with hematopoietic cells [8] (oral pre-treatment in CY-treated mice) is listed as “some treated animals return to a “baseline level””. Moreover, in the series with hematopoietic cells [8] (setting [14]), the “Effect on bone marrow red cell count (in words)” value is recorded as “significant increase” and the “Effect on bone marrow white cell count (in words)” value is “significant increase”.
Consider `CCCCCCCCCC(=O)[O-].[Na+]` [sodium caprate], for which, in the series on hematopoietic cells [9], the “Effect on peripheral red blood cell count (FIG. 4)” value is listed as “weak increase”. Also, in the series with hematopoietic cells [2], the “Effect on bone marrow red cell count (FIG. 2)” value is reported as “No effect”, the “Effect on bone marrow white cell count (FIG. 3)” value is on record as “No effect” and the “Effect on peripheral red blood cell count (FIG. 1)” value was “significant increase”.
For `CCCCCCCCCC(=O)OCC(COC(=O)CCCCCCCCC)OC(=O)CCCCCCCCC` [Tricaprin, tricaprin], the “Bone marrow red cell count” value with bone marrow red cells is recorded as 33.8 ± 3.7 10^6. Besides, in series [3], the “CFU-GEMM (colony number), bone marrow” value is recorded as 0.5 colony number.
Take `CCCCCCCC(=O)O` [caprylic acid]: in series [10], the LD50 was 10.08 g/kg.
On to `O=P1(N(CCCl)CCCl)NCCCO1` (stereo not shown) [CY, cyclophosphamide, reference compound], for which the “Bone marrow red cell count” value in the series on bone marrow red cells is recorded as 31.5 ± 3.5 10^6. In addition, the “CFU-GEMM (colony number), bone marrow” value in [3] amounted to 1 colony number. For the same compound, in the series on hematopoietic cells [5], the “Cell count, peripheral blood white cells” value was 1.3 ± 0.6 10^6; the “Cell count, spleen red cells” value was 341 ± 107 10^6; the “Cell count, spleen white cells” value is 34. ± 9 10^6. Besides, in the series on hematopoietic cells [8] (setting [15]), the “Cell count, bone marrow red cells” value is on record as 31.6 ± 5.0 10^6 and the “Cell count, bone marrow white cells” value was 19.8 ± 4.4 10^6.
On to `c1ccc([C@H]2CN3CCSC3=N2)cc1` [levamisole, reference compound], for which, in series [1], the median lethal dose (LD50) is 16 mg/kg.

These data come from US20080090848A1, “Substituted Purinyl Derivatives With Immunomodulator And Chemoprotective Activity And Use Alone Or With Medium-Chain Length Fatty Acids Or Glycerides” (priority 2004, published 2008).
